Source: ChEMBL document CHEMBL1123107, “Synthesis, stereochemistry, and analgesic activity of 4-mono- and 4,4-disubstituted 1,2,3,4,5,6-hexahydro-2,6-methano-3-benzazocines” (1985)
Activity calls are given as the source filed them. No cut-off for these calls is given here.

Organism: Mus musculus
Experiment: Compound was evaluated for analgesic activity in a mouse hotplate test
Type: functional

Row | SMILES | ED50 [mg/kg]
1 | C[C@H]1CC2(C)CC(Cc3ccccc32)N1C (some centres undefined) | 24.7
2 | C[C@@H]1CC2(C)CC(Cc3ccccc32)N1C (some centres undefined) | 10.6
3 | CN1CC[C@]23c4c5ccc(O)c4O[C@H]2[C@@H](O)C=C[C@H]3[C@H]1C5.CN1CC[C@]23c4c5ccc(O)c4O[C@H]2[C@@H](O)C=C[C@H]3[C@H]1C5.O=S(=O)(O)O | 1.2
4 | C=CCN1C(C)CC2(C)CC1Cc1ccc(O)cc12 (centres undefined) | 4.2
5 | CC1CC2(C)CC(Cc3ccc(O)cc32)N1CC1CC1 (centres undefined) | 2.4
6 | CC1CC2(C)CC(Cc3ccc(O)cc32)N1C (centres undefined) | 1.1
7 | CC1CC2(C)c3ccccc3CC(C2C)N1C (centres undefined) | 14.8
8 | C=CC[C@]1(C)CC2(C)CC(Cc3ccccc32)N1C (some centres undefined) | 3.7

Tested on: Mus musculus
Experiment: Compound was evaluated for analgesic activity in a mouse hotplate test; IA= Inactive at the dose level of 20 mg/kg
Type: functional, organism-based
Parameters: dose 20 mg/kg

Row | SMILES | ED50
9 | CCC1CC2(C)c3ccccc3CC(C2C)N1C (centres undefined) | inactive
10 | C=CC[C@@]1(C)CC2(C)CC(Cc3ccccc32)N1C (some centres undefined) | inactive

Tested on: Mus musculus
Experiment: Compound was evaluated for analgesic activity in a mouse hotplate test; IA= Inactive at the dose level of 50 mg/kg
Type: functional, organism-based
Parameters: dose 50 mg/kg

Row | SMILES | ED50
11 | CC1CN(C)C2Cc3ccc(O)cc3C1(C)C2 (centres undefined) | inactive

Organism: Mus musculus
Experiment: Compound was evaluated for analgesic activity in a mouse hotplate test; b= low level of activity exhibited which did not follow a dose-response relationship
Type: functional, organism-based

Row | SMILES | ED50
12 | CC1C2Cc3ccccc3C1(C)CC(Cc1ccccc1)N2C (centres undefined) | Low level of activity
13 | CC1C2Cc3ccccc3C1(C)CC(CCc1ccccc1)N2C (centres undefined) | Low level of activity
14 | CN1C2Cc3ccccc3C(C)(C2)CC1(C)Cc1ccccc1 (centres undefined) | Low level of activity
